In US20180271863A1, “TARGETING P2 PURINERGIC RECEPTORS TO TREAT HEPATOCELLULAR CARCINOMA (HCC)” (Baylor College of Medicine, priority 2015, published 2018):

Legend:
[1] = system: human hepatocytes; experiment: MTT assay of cell proliferation and viability, human hepatocytes; type: cell-based; conditions: 18 h treatment
Protocol: (§1) Normal human primary hepatocytes isolated from healthy adults (no known history of HCC) in suspension or freshly-frozen prior to shipment (Cryoport Systems, CA) were purchased from Triangle Research Labs, NC. Fresh hepatocytes were plated on collagen-coated tissue culture plates or glass coverslips in Williams E complete media with additives (10% fetal bovine serum, 2 mM glutamine, […] insulin, 4 ng/ml glucagon, […] transferrin, 2.5 ng/ml sodium selenite, 10,000 U/ml penicillin, […] streptomycin, 50 g/ml gentamycin) for 3 h to ensure hepatocyte adherence to plates. Subsequently, hepatocytes were maintained in Williams E minimal media free from serum and growth factors for 24 h prior to treatment. Human hepatocellular carcinoma derived Huh7, and Hep3B, were cultured in Minimum Essential Medium Eagle (MEM); SNU-387 was cultured in Roswell Park Memorial Institute (RPMI) medium and PLC/PRF/5 cultured in Dulbecco's Modified Eagle's medium (DMEM). All maintenance culture media were supplemented with 10% fetal bovine serum (FBS), L-Glutamine (2 mM), penicillin (100 units/ml) and streptomycin ([…]) at 37° C. and 5% CO2. […]
(§2) Cell viability was determined using the 3-(4, 5-dimethylthiazol-2-yl)-2,5-diphenyltetrazolium (MTT, Sigma) assays. […] After shaking the plates for 30 min, the absorbance at 570 nm was measured (background subtraction at […]).

[2] = system: Huh7 cells; experiment: qRT-PCR of cyclin mRNA in Huh7 cells; type: cell-based, human; conditions: 6 h treatment
Protocol: Normal human primary hepatocytes isolated from healthy adults (no known history of HCC) in suspension or freshly-frozen prior to shipment (Cryoport Systems, CA) were purchased from Triangle Research Labs, NC. Fresh hepatocytes were plated on collagen-coated tissue culture plates or glass coverslips in Williams E complete media with additives (10% fetal bovine serum, 2 mM glutamine, […] insulin, 4 ng/ml glucagon, […] transferrin, 2.5 ng/ml sodium selenite, 10,000 U/ml penicillin, […] streptomycin, 50 g/ml gentamycin) for 3 h to ensure hepatocyte adherence to plates. Subsequently, hepatocytes were maintained in Williams E minimal media free from serum and growth factors for 24 h prior to treatment. Human hepatocellular carcinoma derived Huh7, and Hep3B, were cultured in Minimum Essential Medium Eagle (MEM); SNU-387 was cultured in Roswell Park Memorial Institute (RPMI) medium and PLC/PRF/5 cultured in Dulbecco's Modified Eagle's medium (DMEM). All maintenance culture media were supplemented with 10% fetal bovine serum (FBS), L-Glutamine (2 mM), penicillin (100 units/ml) and streptomycin ([…]) at 37° C. and 5% CO2. Cells were maintained in serum free media (containing 2 mM L-Glutamine, 100 units/ml penicillin and ([…])) streptomycin for 24 h prior to treatment. Total RNA was isolated from human livers or cells using Trizol Reagent according to manufacturer's instructions (Invitrogen, NY). Complementary DNA (cDNA) synthesis was performed by reverse transcription of total RNA (2 μg) with high capacity cDNA reverse transcription kit (Applied Biosystems, Foster city, CA). The cDNA product was amplified by qRT-PCR in Step One Plus Real-Time PCR system using SYBR Green PCR Master Mix (Applied Biosystems, Grand Island, N.Y.). Quantitative expression values were determined using the […] as specified by manufacturers using GAPDH as a control.

[3] = system: Huh7 cells; experiment: Western blotting of Huh7 nuclear fractions for YAP; type: cell-based, human; conditions: 24 h treatment
Source text: Total protein extracts were obtained by homogenizing cells in total lysis buffer and analyzed by Western blotting as described recently (Oncotarget 2015; 6:41162-41179). Hippo kinases Mst1/2 and Lats1/2 work through a phosphorylation cascade to phosphorylate Yap, thereby retaining Yap in the cytoplasm. In spite of nucleotide-mediated Mst1/2 and Lats phosphorylation, ATP, ADP and ATPγS treatment was individually insufficient to induce Yap phosphorylation. […] Similarly, ATP treatment alone increased nuclear YAP protein expression (1.7 fold) (FIG. 20D).

[4] = system: SNU-387 cells; experiment: BrdU incorporation (proliferation) in SNU-387 cells; type: cell-based, human; conditions: SFM 24 hours, ATP 24 hours
Protocol: (§3) To determine whether P2 purinergic receptor activation influences HCC cell proliferation, BrdU incorporation was assessed in HCC cells maintained in SFM for 24 hours and treated with ATP for 24 hours. ATP treatment alone was sufficient to induce proliferation in each of these cell lines (Huh7, 34%; Hep3B, 46%; SNU-387, 47% and PLC/PRF/5, 24%), identifying nucleotides as liver cancer cell mitogens (FIG. 7A).
(§4) Normal human primary hepatocytes isolated from healthy adults (no known history of HCC) in suspension or freshly-frozen prior to shipment (Cryoport Systems, CA) were purchased from Triangle Research Labs, NC. Fresh hepatocytes were plated on collagen-coated tissue culture plates or glass coverslips in Williams E complete media with additives (10% fetal bovine serum, 2 mM glutamine, […] insulin, 4 ng/ml glucagon, […] transferrin, 2.5 ng/ml sodium selenite, 10,000 U/ml penicillin, […] streptomycin, 50 g/ml gentamycin) for 3 h to ensure hepatocyte adherence to plates. […]
(§5) Formalin-fixed and paraffin embedded liver sections from HCC patients were analyzed by immunohistochemistry with anti-P2X3 antibody (Abcam, Cambridge, Mass.). […] BrdU positive cells were counted and expressed as a percentage of the total number of cells in ten randomly selected high-power fields (20×) per coverslips.

[5] = system: PLC/PRF/5 cells; experiment: BrdU incorporation (proliferation) in PLC/PRF/5 cells; type: cell-based, human; conditions: SFM 24 hours, ATP 24 hours
Protocol: as §3, §4, §5

[6] = system: Huh7 cells; experiment: MTT assay of cell proliferation and viability, Huh7; type: cell-based, human; conditions: ATP 100 μM, 18 h
Protocol: as §1, §2

[7] = system: PLC/PRF/5 cells; experiment: MTT assay of cell proliferation and viability, PLC/PRF/5; type: cell-based, human; conditions: ATP 100 μM, 18 h
Protocol: as §1, §2

Structure (SMILES) | increase in cell proliferation and viability (MTT) [1] [%] | Cyclin D3 mRNA expression vs untreated cells [2] [fold] | nuclear YAP protein expression compared to untreated cells [3] [fold] | proliferation (BrdU incorporation) induced by ATP [4] [%] | proliferation (BrdU incorporation) induced by ATP [5] [%] | increase in cell proliferation and viability (MTT) [6] [%] | increase in cell proliferation and viability (MTT) [7] [%]
Nc1ncnc2c1ncn2[C@@H]1O[C@H](COP(=O)(O)OP(=O)(O)OP(O)(O)=S)[C@@H](O)[C@H]1O [ATPγS] | 64 | 2.1 | 2.8 | – | – | – | –
Nc1ncnc2c1ncn2[C@@H]1O[C@H](COP(=O)(O)OP(=O)(O)OP(=O)(O)O)[C@@H](O)[C@H]1O [ATP] | 27 | – | 1.7 | 47 | 24 | 65 | 43
